Legend:
Danio rerio embryo [1] = test: EC20 Eye size_Decrease; higher = less potent
Protocol: (§1)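 Zebrafish embryos (UFZ-OBI strain) were exposed from 2 hpf for 48 h (2 dpf) or 96 h (4 dpf) at 28 °C; spontaneous tail coiling was scored at 25 hpf. Morphological features from automated image analysis (FishInspector), heart rate and locomotor response were fitted with drc models. Quantal endpoints were dichotomised at 2.5 SD from controls and fitted with a log-logistic model; heart rate, pigmentation and STC were normalised to the replicate control mean. Betamethasone was tested as betamethasone dipropionate, diflorasone as diflorasone diacetate.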

Danio rerio embryo [2] = test: EC50 Eye size_Decrease
Protocol: as §1

Danio rerio embryo [3] = test: EC20 Lack of SB; higher = less potent; details: exposure time: 4 dpf
Protocol: as §1

Danio rerio embryo [4] = details: exposure time: 4 dpf
Protocol: as §1

Danio rerio embryo [5] = test: EC20 STC bell shape; higher = less potent; details: exposure time: 25 h
Protocol: as §1

Danio rerio embryo [6] = test: EC20 Heart rate; higher = less potent
Protocol: as §1

Danio rerio embryo [7] = test: EC10 Pigmentation decrease; higher = less potent
Protocol: as §1

Danio rerio embryo [8] = test: EC10 Lack of SB; higher = less potent; details: exposure time: 4 dpf
Protocol: as §1

Danio rerio embryo [9] = test: EC20 Pigmentation decrease; higher = less potent
Protocol: as §1

Danio rerio embryo [10] = tested on: Danio rerio embryo
Protocol: as §1

Danio rerio embryo [11] = test: EC10 Eye size_Decrease; higher = less potent
Protocol: as §1

Danio rerio embryo [12] = test: EC10 STC bell shape; higher = less potent; details: exposure time: 25 h
Protocol: as §1

Danio rerio embryo [13] = test: EC10 Heart rate; higher = less potent
Protocol: as §1

Danio rerio embryo [14] = test: EC10 Mandibular arch distance_Decrease; higher = less potent; details: exposure time: 4 dpf
Protocol: as §1

Danio rerio embryo [15] = test: EC10 LMR ligth decrease; higher = less potent; details: exposure time: 4 dpf
Protocol: as §1

Danio rerio embryo [16] = test: EC10 Head size_Decrease; higher = less potent
Protocol: as §1

Danio rerio embryo [17] = test: EC20 Pigmentation increase; higher = less potent; details: exposure time: 4 dpf
Protocol: as §1

Danio rerio embryo [18] = test: EC50 Mandibular arch distance_Decrease; details: exposure time: 4 dpf
Protocol: as §1

Danio rerio embryo [19] = test: EC20 Mandibular arch distance_Decrease; higher = less potent; details: exposure time: 4 dpf
Protocol: as §1

Danio rerio embryo [20] = test: EC20 Head size_Decrease; higher = less potent
Protocol: as §1

Danio rerio embryo [21] = test: EC10 STC increase; higher = less potent; details: exposure time: 25 h
Protocol: as §1

Danio rerio embryo [22] = test: EC50 Head size_Decrease
Protocol: as §1

Danio rerio embryo [23] = test: EC10 Pigmentation increase; higher = less potent; details: exposure time: 4 dpf
Protocol: as §1

Danio rerio embryo [24] = tested on: Danio rerio embryo; remark: listed apart in the source
Protocol: as §1

Danio rerio embryo [25] = test: EC20 STC increase; higher = less potent; details: exposure time: 25 h
Protocol: as §1

Danio rerio embryo [26] = test: EC50 Head trunk angle_Decrease; details: exposure time: 2 dpf
Protocol: as §1

Danio rerio embryo [27] = test: EC20 Head trunk angle_Decrease; higher = less potent; details: exposure time: 2 dpf
Protocol: as §1

Danio rerio embryo [28] = test: EC20 LMR ligth decrease; higher = less potent; details: exposure time: 4 dpf
Protocol: as §1

Danio rerio embryo [29] = test: EC10 Head trunk angle_Decrease; higher = less potent; details: exposure time: 2 dpf
Protocol: as §1

Danio rerio embryo [30] = test: EC10 STC decrease; higher = less potent; details: exposure time: 25 h
Protocol: as §1

Danio rerio embryo [31] = test: EC50 Head-trunk angle_Decrease; details: exposure time: 2 dpf
Protocol: as §1

Danio rerio embryo [32] = test: EC20 STC decrease; higher = less potent; details: exposure time: 25 h
Protocol: as §1

SMILES	EC20 Eye size Decrease (Danio rerio embryo [1]; exposure time: 4 dpf)	EC50 Eye size Decrease (Danio rerio embryo [2]; exposure time: 4 dpf)	EC20 Lack of SB (Danio rerio embryo [3])	EC50 Lack of SB (Danio rerio embryo [4])	EC20 Heart rate (Danio rerio embryo [6]; exposure time: 2 dpf)	EC20 Heart rate (Danio rerio embryo [6]; exposure time: 4 dpf)	EC10 Pigmentation decrease (Danio rerio embryo [7]; exposure time: 2 dpf)	EC10 Lack of SB (Danio rerio embryo [8])	EC20 Pigmentation decrease (Danio rerio embryo [9]; exposure time: 2 dpf)	EC10 Eye size Decrease (Danio rerio embryo [11]; exposure time: 4 dpf)	EC10 Heart rate (Danio rerio embryo [13]; exposure time: 2 dpf)	EC10 Heart rate (Danio rerio embryo [13]; exposure time: 4 dpf)	EC20 Eye size Decrease (Danio rerio embryo [1]; exposure time: 2 dpf)	EC50 Eye size Decrease (Danio rerio embryo [2]; exposure time: 2 dpf)	EC10 Head size Decrease (Danio rerio embryo [16]; exposure time: 2 dpf)	EC20 Head size Decrease (Danio rerio embryo [20]; exposure time: 2 dpf)	EC50 Head size Decrease (Danio rerio embryo [22]; exposure time: 2 dpf)	EC50 Head trunk angle Decrease (Danio rerio embryo [26])	EC20 Head trunk angle Decrease (Danio rerio embryo [27])	EC10 Eye size Decrease (Danio rerio embryo [11]; exposure time: 2 dpf)	further results
Cc1ccc(-c2cc(C(F)(F)F)nn2-c2ccc(S(N)(=O)=O)cc2)cc1 [Celecoxib]	10.5 µM	13.4 µM	8.45 µM	9.14 µM	16.1 µM	4.72 µM	23.7 µM	8.08 µM	27.1 µM	9.06 µM	10.3 µM	2.25 µM	–	–	–	–	–	–	–	–	EC20 STC bell shape (Danio rerio embryo [5]): 23.8 µM; EC50 Pigmentation decrease (Danio rerio embryo [10]; exposure time: 2 dpf): 34 µM; EC10 STC bell shape (Danio rerio embryo [12]): 20.4 µM
CC(C)(C)C(O)/C(=C/c1ccc(Cl)cc1Cl)n1cncn1 (stereo not drawn) [Diniconazole]	3.61 µM	5.05 µM	–	–	6.61 µM	7 µM	6.17 µM	–	7.3 µM	2.97 µM	4.6 µM	5.23 µM	6.78 µM	7.85 µM	3.64 µM	4.37 µM	5.99 µM	4.5 µM	3.2 µM	6.22 µM	EC10 Mandibular arch distance Decrease (Danio rerio embryo [14]): 1.96 µM; EC10 LMR ligth decrease (Danio rerio embryo [15]): 0.478 µM; EC20 Pigmentation increase (Danio rerio embryo [17]): 4.99 µM; EC50 Mandibular arch distance Decrease (Danio rerio embryo [18]): 6.4 µM; EC20 Mandibular arch distance Decrease (Danio rerio embryo [19]): 3.04 µM; EC10 STC increase (Danio rerio embryo [21]): 6.86 µM; EC10 Pigmentation increase (Danio rerio embryo [23]): 2.49 µM; EC50 Heart rate (Danio rerio embryo [24]; exposure time: 4 dpf): 11.3 µM; EC20 STC increase (Danio rerio embryo [25]): 7.82 µM; EC20 LMR ligth decrease (Danio rerio embryo [28]): 0.855 µM; EC10 Head trunk angle Decrease (Danio rerio embryo [29]): 2.62 µM
C[Si](Cn1cncn1)(c1ccc(F)cc1)c1ccc(F)cc1 [Flusilazole]	4.86 µM	5.51 µM	1.99 µM	2.78 µM	26.2 µM	7.13 µM	–	1.64 µM	–	4.51 µM	16 µM	4.6 µM	21.8 µM	22.3 µM	28.1 µM	28.8 µM	30.1 µM	–	–	21.5 µM	EC10 Mandibular arch distance Decrease (Danio rerio embryo [14]): 6.12 µM; EC50 Mandibular arch distance Decrease (Danio rerio embryo [18]): 11.4 µM; EC20 Mandibular arch distance Decrease (Danio rerio embryo [19]): 7.71 µM; EC10 Pigmentation decrease (Danio rerio embryo [7]; exposure time: 4 dpf): 3.38 µM; EC20 Pigmentation decrease (Danio rerio embryo [9]; exposure time: 4 dpf): 7.16 µM; EC50 Pigmentation decrease (Danio rerio embryo [10]; exposure time: 4 dpf): 22.2 µM; EC10 STC decrease (Danio rerio embryo [30]): 2.72 µM; EC50 Head-trunk angle Decrease (Danio rerio embryo [31]): 11.8 µM; EC20 STC decrease (Danio rerio embryo [32]): 4.11 µM
CCCCC(O)(Cn1cncn1)c1ccc(Cl)cc1Cl (stereo not drawn) [Hexaconazole]	12.2 µM	15.1 µM	7.52 µM	10.3 µM	14.8 µM	11.1 µM	17.8 µM	6.28 µM	19.4 µM	10.7 µM	8.31 µM	5.53 µM	48.8 µM	56.1 µM	33.8 µM	40.3 µM	54.3 µM	23.3 µM	16 µM	44.9 µM	EC10 Mandibular arch distance Decrease (Danio rerio embryo [14]): 19.8 µM; EC20 STC bell shape (Danio rerio embryo [5]): 19.2 µM; EC50 Mandibular arch distance Decrease (Danio rerio embryo [18]): 37.1 µM; EC20 Mandibular arch distance Decrease (Danio rerio embryo [19]): 24.9 µM; EC50 Heart rate (Danio rerio embryo [24]; exposure time: 2 dpf): 39.8 µM; EC50 Pigmentation decrease (Danio rerio embryo [10]; exposure time: 2 dpf): 22.6 µM; EC10 STC bell shape (Danio rerio embryo [12]): 17.5 µM; EC10 Head trunk angle Decrease (Danio rerio embryo [29]): 12.8 µM
CCOC(=O)N1CCC(=C2c3ccc(Cl)cc3CCc3cccnc32)CC1 [Loratadine]	5.96 µM	6.82 µM	0.202 µM	0.282 µM	2.72 µM	2.18 µM	–	0.167 µM	–	5.5 µM	1.01 µM	1.1 µM	6.71 µM	8.45 µM	2.55 µM	4.61 µM	12.7 µM	7.05 µM	5.06 µM	5.86 µM	EC10 Head size Decrease (Danio rerio embryo [16]; exposure time: 4 dpf): 6.85 µM; EC20 Head size Decrease (Danio rerio embryo [20]; exposure time: 4 dpf): 8.95 µM; EC50 Head size Decrease (Danio rerio embryo [22]; exposure time: 4 dpf): 14.1 µM; EC10 Pigmentation decrease (Danio rerio embryo [7]; exposure time: 4 dpf): 8.11 µM; EC50 Heart rate (Danio rerio embryo [24]; exposure time: 2 dpf): 14.8 µM; EC50 Heart rate (Danio rerio embryo [24]; exposure time: 4 dpf): 7.03 µM; EC20 Pigmentation decrease (Danio rerio embryo [9]; exposure time: 4 dpf): 8.62 µM; EC50 Pigmentation decrease (Danio rerio embryo [10]; exposure time: 4 dpf): 9.57 µM; EC10 STC decrease (Danio rerio embryo [30]): 3.8 µM; EC20 STC decrease (Danio rerio embryo [32]): 4.66 µM; EC10 Head trunk angle Decrease (Danio rerio embryo [29]): 4.17 µM
CN(Cc1cnc2nc(N)nc(N)c2n1)c1ccc(C(=O)N[C@@H](CCC(=O)O)C(=O)O)cc1 [Methotrexate]	116 µM	162 µM	91 µM	108 µM	–	–	185 µM	82.2 µM	235 µM	96.2 µM	–	–	–	–	–	–	–	252 µM	180 µM	–	EC10 LMR ligth decrease (Danio rerio embryo [15]): 32.5 µM; EC20 LMR ligth decrease (Danio rerio embryo [28]): 53.8 µM; EC10 Head trunk angle Decrease (Danio rerio embryo [29]): 148 µM

From the supplement of paper PMC9013687
